This assay addresses T1, human FASN (Homo sapiens, UniProt P49327).
T1 construct: was purified from SKBR3 cells using procedures modified from those in Jayakumar et al; endogenous in cells; host or cells: SKBR3 human breast cancer cells (ATCC); Endogenous enzyme purified by ammonium sulfate precipitation and a mono Q column
The assay is described as follows: FASN Scintillation Proximity Flashplate Assay. In kind it is biochemical. The conditions noted are these: human FASN purified from SKBR3 cells; unstarred symbols. The procedure: Human FASN protein (SEQ ID NO. 1) was purified from SKBR3 cells using procedures modified from those in Jayakumar et al. PNAS 1995, 92:8695-8699. SKBR3 cells were obtained from ATCC and grown in DMEM high glucose medium supplemented with 10% FBS, 1 μg/mL bovine pancreas insulin, 100 U/mL penicillin and 100 µg/mL streptomycin. The confluent cells were trypsinized and washed three times with PBS buffer before frozen in liquid N2 and stored at −80° C. Frozen cells were thawed on ice and resuspended in lysis buffer (25 mM Tris-HCl, pH 7.0, 15 mM NaCl, 1 mM EDTA, and 1 mM DTT) with protease inhibitors. The cells were lysed by sonication, and the cell debris was removed by centrifugation at 20,000 rpm for 30 min. To the supernatant, neutralized saturated ammonium sulfate solution was added to a final concentration of 35%. The solution was left on ice for 1 hr, and the precipitated proteins were harvested by centrifugation at 20,000 rpm for 30 min. The proteins were redissolved in lysis buffer without NaCl and loaded on a mono Q column. Bound proteins were eluted with a linear gradient of NaCl in lysis buffer. Each fraction was analyzed by SDS-PAGE and FASN NADPH consumption assay. The fractions containing FASN were pooled and concentrated to 2-3 mg/mL. Glycerol was added to 20%, and the protein was frozen in liquid N2 and stored at −80° C.
Acetyl-coenzyme A, malonyl-coenzyme A, NADPH, bovine gamma globulin, and ORLISTAT were purchased from Sigma (St. Louis, Mo.). Tris(2-carboxyethyl) phosphine hydrochloride (TCEP) was purchased from Pierce Biotechnologies (Rockford, Ill.). [^3H]-acetyl-coenzyme A was purchased from Moravek Biochemicals (Brea, CA). FlashPlate™ PLUS phospholipid 96-well scintillant coated microplates were purchased from Perkin Elmer Life and Analytical Sciences (Shelton, CT). The method of the FASN Scintillation Proximity FlashPlate assay is similar to that described in Weiss and Glickman Assay Drug Dev Technol 2003, 1:161-6. In a 96-well polypropylene microplate, a dilution series (typical concentrations 60 nM-1.0 mM) of test compounds were prepared in DMSO followed by a 20-fold dilution into FASN assay buffer (50 mM potassium phosphate, pH 7.0, 1.0 mM EDTA, 0.01% NP-40), of which 5.0 μL each was transferred to a FlashPlate® PLUS 96-well plate and mixed with 35 μL FASN assay buffer plus 0.5 mg/mL bovine gamma globulin and 1 mM TCEP. FASN protein (10 μL, 10 nM) was added per well, and the microplate was incubated at 37° C. for 30 min. 10 μL of 20 mM NADPH was added, and the reaction was initiated by addition of […] substrate mixture to final concentrations of 1 nM FASN, 100 μM acetyl-coenzyme A, 6 μCi [^3H]-acetyl-coenzyme A, 300 μM malonyl-coenzyme A, 2 mM NADPH, 0.5 mg/mL bovine gamma globulin, and 1 mM TCEP in a volume of 100 μL per well. Assay plates were incubated for 2 hr at 37° C. and the reaction was stopped with 2 μL of 2.5 mM stock solution of ORLISTAT in DMSO to ˜50 μM. The plates were read in a Wallac 1450 Microbeta Plus liquid scintillation counter (Perkin Elmer, Waltham, Mass.), and counts per minute (CPM) were collected over 2 min. Each inhibitor well CPM was compared to the maximum FASN enzyme activity (Max) CPM and the background (Min) CPM, as measured by omission of FASN enzyme in the background well. % Inhibition values were calculated, and curves were fitted by a four-parameter logistic function to yield IC50 values:
Compounds were assayed as inhibitors of human FASN using the above-described FASN Scintillation Proximity Flashplate Assay (IC50; nM) or FASN NADPH Consumption Assay (*) (IC50; nM). The corresponding activity of the isolated compound is also provided along with the measured mass (ES^+).
(SPA uses beads or plates that emit light when radiolabelled molecules are held near them.)

The IC50 is the concentration needed to halve the response being measured. A lower IC50 goes with inhibition by little substance.

T1 sequence (P49327 whole entry): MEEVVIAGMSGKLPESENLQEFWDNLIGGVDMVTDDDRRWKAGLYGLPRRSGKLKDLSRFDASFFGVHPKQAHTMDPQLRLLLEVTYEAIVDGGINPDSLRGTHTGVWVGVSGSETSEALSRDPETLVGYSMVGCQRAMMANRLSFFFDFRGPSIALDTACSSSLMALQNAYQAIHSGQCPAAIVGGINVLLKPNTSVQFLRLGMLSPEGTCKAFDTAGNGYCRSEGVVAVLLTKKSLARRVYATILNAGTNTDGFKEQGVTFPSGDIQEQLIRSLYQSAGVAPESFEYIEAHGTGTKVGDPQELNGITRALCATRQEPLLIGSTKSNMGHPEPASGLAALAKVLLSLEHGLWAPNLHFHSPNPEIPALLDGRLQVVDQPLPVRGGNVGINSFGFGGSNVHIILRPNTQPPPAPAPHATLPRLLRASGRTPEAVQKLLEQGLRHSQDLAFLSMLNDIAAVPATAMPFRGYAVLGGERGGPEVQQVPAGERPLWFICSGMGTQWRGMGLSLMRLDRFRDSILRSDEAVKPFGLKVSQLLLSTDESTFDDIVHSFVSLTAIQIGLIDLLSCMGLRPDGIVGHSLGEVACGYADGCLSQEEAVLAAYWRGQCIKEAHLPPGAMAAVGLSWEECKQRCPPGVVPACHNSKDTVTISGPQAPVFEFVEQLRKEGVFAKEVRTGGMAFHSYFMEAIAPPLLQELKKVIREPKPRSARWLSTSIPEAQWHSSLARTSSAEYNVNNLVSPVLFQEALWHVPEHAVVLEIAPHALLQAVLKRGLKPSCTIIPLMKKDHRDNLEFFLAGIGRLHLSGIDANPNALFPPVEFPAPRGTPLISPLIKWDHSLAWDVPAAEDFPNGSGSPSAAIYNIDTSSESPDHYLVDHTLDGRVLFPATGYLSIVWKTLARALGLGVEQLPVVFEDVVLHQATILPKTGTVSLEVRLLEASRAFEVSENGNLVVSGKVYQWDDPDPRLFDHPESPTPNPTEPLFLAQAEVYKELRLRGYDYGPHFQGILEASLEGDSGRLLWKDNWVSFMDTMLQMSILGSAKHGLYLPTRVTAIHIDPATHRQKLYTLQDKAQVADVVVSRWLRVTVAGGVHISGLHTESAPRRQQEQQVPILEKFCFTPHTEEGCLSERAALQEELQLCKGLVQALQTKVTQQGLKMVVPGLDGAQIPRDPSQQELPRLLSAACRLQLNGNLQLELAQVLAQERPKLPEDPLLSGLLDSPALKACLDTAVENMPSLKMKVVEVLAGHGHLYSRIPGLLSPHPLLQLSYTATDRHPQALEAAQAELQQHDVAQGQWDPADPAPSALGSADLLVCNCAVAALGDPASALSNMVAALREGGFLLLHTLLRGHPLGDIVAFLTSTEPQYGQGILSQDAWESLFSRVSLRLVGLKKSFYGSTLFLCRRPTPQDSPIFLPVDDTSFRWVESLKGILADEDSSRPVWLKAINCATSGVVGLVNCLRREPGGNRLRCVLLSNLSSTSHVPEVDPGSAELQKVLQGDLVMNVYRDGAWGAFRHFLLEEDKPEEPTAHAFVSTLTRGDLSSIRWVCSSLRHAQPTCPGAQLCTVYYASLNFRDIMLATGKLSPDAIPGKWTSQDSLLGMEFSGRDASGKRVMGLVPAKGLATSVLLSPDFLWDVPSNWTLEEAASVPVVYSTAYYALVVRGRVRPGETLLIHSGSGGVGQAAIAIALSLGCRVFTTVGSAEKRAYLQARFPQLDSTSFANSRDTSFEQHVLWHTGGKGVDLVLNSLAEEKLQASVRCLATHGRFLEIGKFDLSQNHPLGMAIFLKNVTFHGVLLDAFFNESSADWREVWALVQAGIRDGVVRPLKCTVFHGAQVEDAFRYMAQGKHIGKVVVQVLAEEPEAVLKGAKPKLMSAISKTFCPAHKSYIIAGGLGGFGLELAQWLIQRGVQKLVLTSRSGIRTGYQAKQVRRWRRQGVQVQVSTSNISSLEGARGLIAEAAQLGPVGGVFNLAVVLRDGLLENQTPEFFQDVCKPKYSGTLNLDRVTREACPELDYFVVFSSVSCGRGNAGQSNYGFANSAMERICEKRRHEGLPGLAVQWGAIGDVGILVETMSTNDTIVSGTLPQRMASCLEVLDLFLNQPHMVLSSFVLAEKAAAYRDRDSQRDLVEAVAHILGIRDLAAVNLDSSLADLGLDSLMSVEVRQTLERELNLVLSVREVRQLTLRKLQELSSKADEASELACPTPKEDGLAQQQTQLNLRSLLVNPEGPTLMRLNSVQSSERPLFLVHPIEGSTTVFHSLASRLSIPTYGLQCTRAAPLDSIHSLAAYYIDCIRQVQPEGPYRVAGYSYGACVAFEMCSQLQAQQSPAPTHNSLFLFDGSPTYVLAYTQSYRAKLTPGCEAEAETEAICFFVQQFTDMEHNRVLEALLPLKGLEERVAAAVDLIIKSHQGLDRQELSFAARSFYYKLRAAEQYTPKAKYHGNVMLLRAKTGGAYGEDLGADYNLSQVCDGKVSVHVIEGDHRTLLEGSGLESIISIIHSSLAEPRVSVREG

`COc1ccc(N(C(=O)n2nnn(-c3ccccc3OC)c2=O)C(C)C)cc1C(=O)OCc1ccccc1` showed an IC50 of less than 15 nM.
The value for `CCN(C(=O)n1nnn(-c2ccccc2OC)c1=O)c1ccc(C(=O)OCc2ccccc2)cc1` was 15 to 100 nM; that for `CCN(C(=O)n1nnn(-c2ccccc2OC)c1=O)c1cc(C(=O)O)ccc1OCCc1ccccc1` was less than 15 nM; that for `COc1cc(OC)c(N(C(=O)n2nnn(-c3c(F)cccc3F)c2=O)C2CCCCC2)cc1C(=O)O` was less than 15 nM.
The value for `CN(C)c1ccc(N(C(=O)n2nnn(-c3c(F)cccc3F)c2=O)C2CCCCC2)cc1C(=O)O` was less than 15 nM; that for `O=C(O)c1cc(N(C(=O)n2nnn(-c3c(F)cccc3F)c2=O)C2CCCCC2)cc2c1OCC2` was less than 15 nM.
The compound `O=C(OCc1ccccc1)c1cc(N(C(=O)n2nnn(-c3c(F)cccc3F)c2=O)C2CCCCC2)ccc1NCc1ccccc1` gave an IC50 of less than 15 nM.
The value for `COc1ccc(N(C(=O)n2nnn(-c3c(F)cccc3F)c2=O)C2CCCCC2)c(OC)c1C(=O)O` was 15 to 100 nM; that for `COCCOCOc1ccc(N(C(=O)n2nnn(-c3c(F)cccc3F)c2=O)C2CCCCC2)cc1C(=O)O` was less than 15 nM.
The value for `COc1ccc(N(C(=O)n2nnn(-c3c(F)cccc3F)c2=O)C2CCCCC2)c(OC)c1C(=O)OCc1ccccc1` was less than 15 nM; that for `COCCOCOc1ccc(N(C(=O)n2nnn(-c3c(F)cccc3F)c2=O)C2CCCCC2)cc1C(=O)OCc1ccccc1` was less than 15 nM; that for `Nc1ccc(N(C(=O)n2nnn(-c3c(F)cccc3F)c2=O)C2CCCCC2)cc1C(=O)O` was less than 15 nM.
For the compound `CC(C)(C)OC(=O)Nc1ccc(N(C(=O)n2nnn(-c3c(F)cccc3F)c2=O)C2CCCCC2)cc1C(=O)O`, the IC50 was less than 15 nM.
The value for `COc1ccc(C(=O)O)cc1N(C(=O)n1nnn(-c2c(F)cccc2F)c1=O)C(C)C` was less than 15 nM; that for `CC(C)N(C(=O)n1nnn(-c2c(F)cccc2F)c1=O)c1ccc(NS(C)(=O)=O)c(C(=O)O)c1` was less than 15 nM; that for `COc1ccc(C(=O)O)cc1N(C(=O)n1nnn(-c2c(F)cccc2F)c1=O)C1CCCCC1` was less than 15 nM.
The value for `CC(C)N(C(=O)n1nnn(-c2c(F)cccc2F)c1=O)c1ccc(N(S(C)(=O)=O)S(C)(=O)=O)c(C(=O)O)c1` was less than 15 nM; that for `COc1ccc(N(C(=O)n2nnn(-c3c(F)cccc3F)c2=O)C2CCCCC2)cc1C(=O)O` was less than 15 nM.
The value for `CC(C)N(C(=O)n1nnn(-c2c(F)cccc2F)c1=O)c1ccc(N(S(C)(=O)=O)S(C)(=O)=O)c(C(=O)OCc2ccccc2)c1` was less than 15 nM; that for `O=C(O)c1ccc(N(C(=O)n2nnn(-c3c(F)cccc3F)c2=O)C2CCCCC2)cc1O` was less than 15 nM.
In turn, `CC(C)N(C(=O)n1nnn(-c2c(F)cccc2F)c1=O)c1cccc(C(=O)O)c1` displayed an IC50 of 15 to 100 nM.
For the compound `CC(C)N(C(=O)n1nnn(-c2c(F)cccc2F)c1=O)c1ccc(N)c(C(=O)OCc2ccccc2)c1`, the IC50 is less than 15 nM.
Regarding `CC(C)N(C(=O)n1nnn(-c2c(F)cccc2F)c1=O)c1ccc(NC(=O)OC(C)(C)C)c(C(=O)O)c1`, the IC50 was less than 15 nM.
The value for `O=C(O)c1cc(N(C(=O)n2nnn(-c3c(F)cccc3F)c2=O)C2CCCCC2)ccc1O` was less than 15 nM; that for `CC(C)N(C(=O)n1nnn(-c2c(F)cccc2F)c1=O)c1ccc(NC(=O)OC(C)(C)C)c(C(=O)OCc2ccccc2)c1` was less than 15 nM.
The value for `CC(C)N(C(=O)n1nnn(-c2c(F)cccc2F)c1=O)c1ccc(C(=O)O)cc1F` was less than 15 nM.
On to `COc1cc(C(=O)O)cc(N(C(=O)n2nnn(-c3c(F)cccc3F)c2=O)C(C)C)c1`, for which the IC50 is less than 15 nM.
Consider `CC(C)N(C(=O)n1nnn(-c2c(F)cccc2F)c1=O)c1ccc(C(=O)OCc2ccccc2)cc1Oc1ccccc1`, for which the IC50 was less than 15 nM.
Take `CCC(CC)N(C(=O)n1nnn(-c2c(F)cccc2F)c1=O)c1cccc(C(=O)O)c1`: the IC50 was in the range of 15 to 100 nM.
The value for `CC(C)N(C(=O)n1nnn(-c2c(F)cccc2F)c1=O)c1ccc(C(=O)OCc2ccccc2)cc1F` was less than 15 nM; that for `CC(C)N(C(=O)n1nnn(-c2c(F)cccc2F)c1=O)c1ccc(Cl)c(C(=O)O)c1` was less than 15 nM.
The value for `CCC(CC)N(C(=O)n1nnn(-c2c(F)cccc2F)c1=O)c1cccc(C(=O)OCc2ccccc2)c1` was less than 15 nM; that for `COc1cc(N(C(=O)n2nnn(-c3c(F)cccc3F)c2=O)C2CCCCC2)ccc1C(=O)O` was less than 15 nM.
The value for `COc1cc(N(C(=O)n2nnn(-c3c(F)cccc3F)c2=O)C(C)C)ccc1C(=O)O` was less than 15 nM; that for `CC(C)N(C(=O)n1nnn(-c2c(F)cccc2F)c1=O)c1ccc(Cl)c(C(=O)OCc2ccccc2)c1` was less than 15 nM.
On to `O=C(NCc1ccccc1)c1cccc(N(C(=O)n2nnn(-c3c(F)cccc3F)c2=O)C2CCCCC2)c1`, for which the IC50 was less than 15 nM.
The value for `COc1cc(OC)c(N(C(=O)n2nnn(-c3c(F)cccc3F)c2=O)C(C)C)cc1C(=O)O` was 15 to 100 nM; that for `CCN(C(=O)n1nnn(-c2c(Cl)cccc2Cl)c1=O)c1ccc(OC)cc1` was 15 to 100 nM.
The value for `CCN(C(=O)n1nnn(-c2c(Cl)cccc2Cl)c1=O)c1ccc(C(=O)O)c(Cl)c1` was less than 15 nM; that for `CCN(C(=O)n1nnn(-c2c(Cl)cccc2Cl)c1=O)c1ccc(C(=O)OC)cc1` was 15 to 100 nM.
The value for `CCN(C(=O)n1nnn(-c2c(Cl)cccc2Cl)c1=O)c1ccc(Cl)c(C(=O)OCc2ccc(OC)cc2)c1` was less than 15 nM; that for `CCN(C(=O)n1nnn(-c2c(Cl)cccc2Cl)c1=O)c1ccc(C(=O)O)cc1Cl` was less than 15 nM.
The compound `CCN(C(=O)n1nnn(-c2c(Cl)cccc2Cl)c1=O)c1cccc(C(=O)O)c1` returned a half-maximal inhibitory concentration (IC50) of 15 to 100 nM.
The value for `CCN(C(=O)n1nnn(-c2c(Cl)cccc2Cl)c1=O)c1ccc(C(=O)O)cc1` was less than 15 nM.
The value for `CCN(C(=O)n1nnn(-c2c(F)cccc2OC)c1=O)c1ccccc1Oc1ccccc1` was 15 to 100 nM; that for `CCC(C)N(C(=O)n1nnn(-c2c(F)cccc2OC)c1=O)c1cccc(C(=O)O)c1` (stereo not drawn) was less than 15 nM.
In turn, `COc1ccc(N(C(=O)n2nnn(-c3c(F)cccc3OC)c2=O)C2CCCC2)cc1C(=O)O` came in with a half-inhibitory concentration (IC50) of less than 15 nM.
The value for `CCN(C(=O)n1nnn(-c2c(F)cccc2OC)c1=O)c1ccc(OC)c(C(=O)O)c1` was 15 to 100 nM.
The value for `COc1ccc(N(C(=O)n2nnn(-c3c(F)cccc3OC)c2=O)C2CCCC2)cc1C(=O)OCc1ccccc1` was less than 15 nM; that for `COc1cccc(F)c1-n1nnn(C(=O)N(c2ccccc2)C2CCCCC2)c1=O` was 15 to 100 nM.
The value for `CCN(C(=O)n1nnn(-c2c(F)cccc2OC)c1=O)c1ccccc1OCCc1ccccc1` was less than 15 nM.
Turning to `CCN(C(=O)n1nnn(-c2c(F)cccc2OC)c1=O)c1ccc(C(=O)O)c(OC)c1`, the half-inhibitory concentration (IC50) is 15 to 100 nM.
The value for `COc1ccc(COC(=O)c2cc(N(C(=O)n3nnn(-c4c(F)cccc4OC)c3=O)C(C)C)ccc2OCCc2ccccc2)cc1` was less than 15 nM.
Take `COc1cccc(F)c1-n1nnn(C(=O)N(c2cccc(F)c2)C(C)(C)C)c1=O`: the concentration for half-maximal inhibition (IC50) fell in the range of 200 to 5000 nM.
The value for `COc1ccc(N(C(=O)n2nnn(-c3c(F)cccc3OC)c2=O)C2CCCCC2)cc1C(=O)O` was less than 15 nM; that for `COc1cccc(F)c1-n1nnn(C(=O)N(c2cccc(C(=O)O)c2)C(C)C)c1=O` was 15 to 100 nM; that for `COc1ccc(C(=O)OCc2ccccc2)cc1N(C(=O)n1nnn(-c2c(F)cccc2OC)c1=O)C(C)C` was 15 to 100 nM.

Source of the values: patent US9346769B2, “Tetrazolones as inhibitors of fatty acid synthase” (Infinity Pharmaceuticals, Inc., priority 2010, dated 2016).
